Assays:
[1] = system: mouse cerebellar granule neurons; experiment: Detection of neuronal apoptosis in mouse cerebellar granule neurons (low K+); type: cell-based; conditions: Neuron, low (5 mM) K+, serum-free, 8 h, FIG. 1, read-out: IC50 for inhibition of neuronal apoptosis
Method: 1. Dissect out cerebella from 7-9 day old CD-I mouse pups; remove meninges.
2. Mince and dissociate with trypsin. Halt trypsinization with Dnase I and egg white trypsin inhibitor.
3. Individual cells are obtained by trituration with a pasteur pipet.
4. Cells were resuspended in cell culture media [(cMEM) E-MEM), 25 mM glucose, 10% fetal bovine serum, 2 mM glutamine, 100 μg/mL gentamycin, 25 mM KCl] and seeded at 1.2×10^5 cells per well onto 96-well microplates pre-coated with poly-D-lysine.
5. Cultures were incubated at 37° C. in 6% CO2, and were used for experiments on day 5-7 in vitro.
1. Replace media in column 1 with serum-free cMEM. Replace medium in columns 2-12 with serum-free cMEM with low (5 mM) K+.
2. Add drug titrations (serial diluted in DMSO; final 1% DMSO). Incubate 8 h @ 37° C.
3. Spin plate @ 1500 rpm 10 min., remove media and add lysis buffer.
4. Incubate 30 min. room temp. shaking.
5. Spin plate @ 1500 rpm 10 min., transfer supernatant to fresh plate. Store @ 4° C.
6. Transfer 5 μL supernatant and 45 μL EIA reagent to EIA strip plate (positive control standards in column 12); incubate @ room temp 2 h.
7. Wash strip plate with PBS using the plate washer.
8. Add 150 μL K-blue substrate (ELISA Technologies, Inc., Gainsville, Fla.); stop using 50 μL Red Stop. Read plate @ 650 nm.

[2] = system: Rat superior cervical ganglion neurons; experiment: Sympathetic neuronal NGF deprivation assay (GAP-43 ELISA and cell counts); type: cell-based; conditions: for Survival, Cell Counts Mean / Survival, ELISA Data Mean: 72 hours; for Survival, ELISA Data Mean: GAP-43 ELISA
Method: Activation of c-jun-N-terminal kinase (JNK) has been implicated in apoptosis in sympathetic neurons. An inhibitor of JNK, Example 2, was tested for neuroprotective effects in two models of sympathetic neuronal cell death.
In the second model, ganglia were dissociated and plated in the presence of NGF 25 ng/ml for 4 days. The NGF was then removed by washing and application of a blocking antibody, and L-790,984 coadministered for 72 hours. Survival was then assayed using the GAP-43 ELISA. This model will be referred to hereafter as the ‘NGF deprivation assay’.
Ganglia were enzymatically dissociated using 0.25% trypsin for 45 minutes. The trypsin was then inhibited using Dulbecco's MEM (DMEM) supplemented with 10% fetal bovine serum, and the cells mechanically triturated using a pipette tip to form a single cell suspension. Neurons in the suspension were counted using a haemocytometer, and plated at a density of 3000-5000 neurons per well in poly-D-lysine and laminin coated 96 well tissue culture clusters in DMEM supplemented with B27 serum substitute. Cultures were then incubated at 37° C./5% CO2. One hour following plating, cultures were either treated with NGF 25 ng/ml or with L-790,984 at a range of concentrations for the NGF deprivation and survival assays respectively.
Cultures for the NGF deprivation assay were returned to the incubator for 4 days. Following this, the medium was aspirated, plates washed once with DMEM/B27, and the cultures treated with Example 2 at concentrations ranging from 1 nM to 10 μM, together with an anti-NGF blocking antibody at 250 ng/ml. Cultures were then returned to the incubator for a further 72 hours prior to fixation and survival quantification. Cultures treated with Example 2 immediately for the survival assay were returned to the incubator for 48 hours; cultures were then fixed and survival quantified using the GAP-43 ELISA.
Cultures were fixed by the addition of an equal volume 4% paraformaldehyde to each well for 10 minutes; this was then aspirated, and replaced by a further volume of 4% paraformaldehyde for a further 20 minutes at room temperature. Plates were then washed three times with PBS/0.3% TX100, and non-specific binding sites blocked by the addition of 5% normal horse serum (NHS) in PBS/0.3% TX100. Plates were incubated at room temperature for one hour, then the blocking serum was aspirated without washing and replaced with primary antibody. The primary antibody used was a mouse monoclonal antibody raised against Growth Associated Protein 43 (Sigma), prepared at a dilution of 1:500 in PBS/0.3% TX100/5% NHS. Primary antibody was added to all sample wells, with four control wells returned to blocking serum to act as minus primary control. Plates were then refrigerated overnight at 4° C. The next day, plates were washed three times with PBS/0.3 TX100 and secondary antibody added. The secondary antibody used was peroxidase conjugated sheep anti-mouse IgG, and was added at a dilution of 1:1000 in PBS/0.3% TX100/5% NHS. Plates were incubated for 1 hour at room temperature, then washed three times with PBS/0.3% TX100, and K-Blue insoluble peroxidase substrate added for 30 minutes at room temperature. The optical density of the plates was then read at 650 nm, and the survival of neurons calculated and expressed as percentage of the control response.
Cell counts were performed on one sample plate for each model of sympathetic neuronal cell death, by the addition of a tertiary antibody to the plate, followed by avidin-biotin complex and an insoluble peroxidase substrate. Following quantification of optical density, plates were washed three times in PBS/0.3% TX100, and non-specific sites blocked using PBS/0.3% TX100/5% normal rabbit serum (“NRS”). Plates were incubated for one hour at room temperature, then the blocking serum was aspirated and replaced with biotinylated rabbit anti-sheep IgG at a dilution of 1:500 in PBS/0.3% TX10O/5% NRS. […]

CCCn1c(C2CCN(C)CC2)nc(-c2ccc(Cl)c(Cl)c2)c1-c1ccnc(NC2CC2)n1 [Example 2, Cyclopropyl-{4-[5-(3,4-dichlorophenyl)-2-[(1-methyl)-piperidin]-4-yl-3-propyl-3H-imidazol-4-yl]-pyrimidin-2-yl}amine]
IC50 [1]: 100 nM
Survival, Cell Counts Mean ([2]; 0.001 μM + anti-NGF 250 ng/ml): 82.00
Survival, ELISA Data Mean ([2]; 0.001 μM + anti-NGF 250 ng/ml): 35.44
Survival, Cell Counts Mean ([2]; 0.01 μM + anti-NGF 250 ng/ml): 81.00
Survival, ELISA Data Mean ([2]; 0.01 μM + anti-NGF 250 ng/ml): 28.20
Survival, Cell Counts Mean ([2]; 0.1 μM + anti-NGF 250 ng/ml): 53.75
Survival, ELISA Data Mean ([2]; 0.1 μM + anti-NGF 250 ng/ml): 22.89
Survival, Cell Counts Mean ([2]; 0.5 μM + anti-NGF 250 ng/ml): 140.25
Survival, ELISA Data Mean ([2]; 0.5 μM + anti-NGF 250 ng/ml): 60.15
Survival, Cell Counts Mean ([2]; 1 μM + anti-NGF 250 ng/ml): 200.00
Survival, ELISA Data Mean ([2]; 1 μM + anti-NGF 250 ng/ml): 102.79
Concentrations at which the survival response was significant ([2]; measured by ELISA): ≥ 500 nM
Concentrations at which the survival response was significant ([2]; measured by cell counts): ≥ 500 nM
